Laboratory results reported in ChEMBL document CHEMBL3603744, “Structure activity relationship of C-2 ether substituted 1,5-naphthyridine analogs of oxabicyclooctane-linked novel bacterial topoisomerase inhibitors as broad-spectrum antibacterial agents (Part-5)” (Bioorg Med Chem Lett, 2015).
In brackets after ≈: the same amount, converted by molar mass. Activity calls are given as the source filed them. The rule behind the calls is not given here.

Experiments:
Staphylococcus aureus [1] = test: Antimicrobial activity against Staphylococcus aureus infected in iv dosed mouse bacteremia survival model; type: functional
Staphylococcus aureus [2] = test: Antimicrobial activity against Staphylococcus aureus infected in orally dosed mouse bacteremia survival model; type: functional; settings: po
Staphylococcus aureus [3] = test: Antimicrobial activity against Staphylococcus aureus Smith by micro broth dilution or agar based method; type: functional
Streptococcus pneumoniae = test: Antimicrobial activity against Streptococcus pneumoniae IID553 by micro broth dilution or agar based method; type: functional
Enterococcus faecium = test: Antimicrobial activity against vancomycin-resistant Enterococcus faecium VanA by micro broth dilution or agar based method; type: functional
Escherichia coli = test: Antimicrobial activity against Escherichia coli ATCC 25922 by micro broth dilution or agar based method; type: functional
Acinetobacter baumannii = test: Antimicrobial activity against Acinetobacter baumannii IID876 by micro broth dilution or agar based method; type: functional
Pseudomonas aeruginosa = test: Antimicrobial activity against Pseudomonas aeruginosa PAO1 by micro broth dilution or agar based method; type: functional
Staphylococcus aureus [4] = test: Antimicrobial activity against methicillin-resistant Staphylococcus aureus OIT971 by micro broth dilution or agar based method; type: functional, organism-based
Staphylococcus aureus [5] = test: Resistance index, ratio of MIC for quinolone-resistant Staphylococcus aureus MS5935 to MIC for quinolone-[…]; type: functional

`Cl.O=C1COc2ccc(CNC34CCC(CCc5c(F)cnc6ccc(OCCCCCO)nc56)(CC3)OC4)nc2N1` showed an ED50 (Staphylococcus aureus [1]) of 21 mg/kg and an ED50 (Staphylococcus aureus [2]) of 43 mg/kg.

In the case of `Cl.NCCCOc1ccc2ncc(F)c(CCC34CCC(NCc5ccc6c(n5)NC(=O)CO6)(CC3)CO4)c2n1`, the ED50 (Staphylococcus aureus [1]) is reported as 15 mg/kg and the ED50 (Staphylococcus aureus [2]) is reported as > 50 mg/kg.

Work on `COc1ccc2ncc(F)c(CCC34CCC(NCc5ccc6c(n5)NC(=O)CO6)(CC3)CO4)c2n1.Cl` yielded an ED50 (Staphylococcus aureus [1]) of 5.5 mg/kg and an ED50 (Staphylococcus aureus [2]) of 17 mg/kg.

For `O=C1COc2ccc(CNC34CCC(CCc5c(F)cnc6ccc(OCCOCCO)nc56)(CC3)OC4)nc2N1`, the MIC (Staphylococcus aureus [3]) was 0.25 µg/mL (≈ 0.44 µM), the MIC (Streptococcus pneumoniae) was 4 µg/mL (≈ 7.05 µM) and the MIC (Enterococcus faecium) was 16 µg/mL (≈ 28.2 µM). For the same compound, the MIC (Escherichia coli) was 32 µg/mL (≈ 56.4 µM), the MIC (Acinetobacter baumannii) was 16 µg/mL (≈ 28.2 µM) and the MIC (Pseudomonas aeruginosa) was 32 µg/mL (≈ 56.4 µM). The “growth inhibition (GI)” value (Staphylococcus aureus [4]) was “Active” and the Ratio (Staphylococcus aureus [5]) was <4.

Compound `CC(C)Oc1ccc2ncc(F)c(CCC34CCC(NCc5ccc6c(n5)NC(=O)CO6)(CC3)CO4)c2n1` has an MIC (Staphylococcus aureus [3]) of 0.25 µg/mL (≈ 0.479 µM), an MIC (Streptococcus pneumoniae) of 2 µg/mL (≈ 3.83 µM) and an MIC (Enterococcus faecium) of 8 µg/mL (≈ 15.3 µM). The MIC (Escherichia coli) was 16 µg/mL (≈ 30.7 µM), the MIC (Acinetobacter baumannii) was 8 µg/mL (≈ 15.3 µM) and the MIC (Pseudomonas aeruginosa) was 32 µg/mL (≈ 61.4 µM). The “growth inhibition (GI)” value (Staphylococcus aureus [4]) was “Active” and the Ratio (Staphylococcus aureus [5]) was <4.

`CN(C)C(=O)COc1ccc2ncc(F)c(CCC34CCC(NCc5ccc6c(n5)NC(=O)CO6)(CC3)CO4)c2n1` gave an MIC (Staphylococcus aureus [3]) of 1 µg/mL (≈ 1.77 µM), an MIC (Streptococcus pneumoniae) of 4 µg/mL (≈ 7.08 µM) and an MIC (Enterococcus faecium) of 16 µg/mL (≈ 28.3 µM). It also gave an MIC (Escherichia coli) of 16 µg/mL (≈ 28.3 µM), an MIC (Acinetobacter baumannii) of 16 µg/mL (≈ 28.3 µM) and an MIC (Pseudomonas aeruginosa) of 16 µg/mL (≈ 28.3 µM). The “growth inhibition (GI)” value (Staphylococcus aureus [4]) was “Active” and the Ratio (Staphylococcus aureus [5]) was <4.

`NCCCCCOc1ccc2ncc(F)c(CCC34CCC(NCc5ccc6c(n5)NC(=O)CO6)(CC3)CO4)c2n1` gave an MIC (Staphylococcus aureus [3]) of 0.5 µg/mL (≈ 0.885 µM), an MIC (Streptococcus pneumoniae) of 1 µg/mL (≈ 1.77 µM) and an MIC (Enterococcus faecium) of 8 µg/mL (≈ 14.2 µM). It also gave an MIC (Escherichia coli) of 4 µg/mL (≈ 7.08 µM), an MIC (Acinetobacter baumannii) of 4 µg/mL (≈ 7.08 µM) and an MIC (Pseudomonas aeruginosa) of 16 µg/mL (≈ 28.3 µM). The “growth inhibition (GI)” value (Staphylococcus aureus [4]) was “Active” and the Ratio (Staphylococcus aureus [5]) was <4.

In the case of `CC(C)COc1ccc2ncc(F)c(CCC34CCC(NCc5ccc6c(n5)NC(=O)CO6)(CC3)CO4)c2n1`, the MIC (Staphylococcus aureus [3]) is reported as 0.063 µg/mL (≈ 0.118 µM), the MIC (Streptococcus pneumoniae) is reported as 0.25 µg/mL (≈ 0.467 µM) and the MIC (Enterococcus faecium) is reported as 4 µg/mL (≈ 7.47 µM). For the same compound, the MIC (Escherichia coli) was 16 µg/mL (≈ 29.9 µM), the MIC (Acinetobacter baumannii) was 2 µg/mL (≈ 3.73 µM) and the MIC (Pseudomonas aeruginosa) was 16 µg/mL (≈ 29.9 µM). The “growth inhibition (GI)” value (Staphylococcus aureus [4]) was “Active” and the Ratio (Staphylococcus aureus [5]) was <4.

With `C=CCOc1ccc2ncc(F)c(CCC34CCC(NCc5ccc6c(n5)NC(=O)CO6)(CC3)CO4)c2n1` the MIC (Staphylococcus aureus [3]) was 0.063 µg/mL (≈ 0.121 µM), the MIC (Streptococcus pneumoniae) was 1 µg/mL (≈ 1.92 µM) and the MIC (Enterococcus faecium) was 8 µg/mL (≈ 15.4 µM). The MIC (Escherichia coli) was 8 µg/mL (≈ 15.4 µM), the MIC (Acinetobacter baumannii) was 2 µg/mL (≈ 3.85 µM) and the MIC (Pseudomonas aeruginosa) was 16 µg/mL (≈ 30.8 µM). For the same compound, the “growth inhibition (GI)” value (Staphylococcus aureus [4]) was “Active” and the Ratio (Staphylococcus aureus [5]) was <4.

With `O=C1COc2ccc(CNC34CCC(CCc5c(F)cnc6ccc(OCC(O)CO)nc56)(CC3)OC4)nc2N1` (centres undefined) the MIC (Staphylococcus aureus [3]) was 0.125 µg/mL (≈ 0.226 µM), the MIC (Streptococcus pneumoniae) was 1 µg/mL (≈ 1.81 µM) and the MIC (Enterococcus faecium) was 4 µg/mL (≈ 7.23 µM). For the same compound, the MIC (Escherichia coli) was 16 µg/mL (≈ 28.9 µM), the MIC (Acinetobacter baumannii) was 4 µg/mL (≈ 7.23 µM) and the MIC (Pseudomonas aeruginosa) was 32 µg/mL (≈ 57.8 µM). The “growth inhibition (GI)” value (Staphylococcus aureus [4]) was “Active”.

`NC(=O)C(F)(F)CCOc1ccc2ncc(F)c(CCC34CCC(NCc5ccc6c(n5)NC(=O)CO6)(CC3)CO4)c2n1` was tested, and the MIC (Staphylococcus aureus [3]) was 0.063 µg/mL (≈ 0.105 µM), the MIC (Streptococcus pneumoniae) was 1 µg/mL (≈ 1.67 µM) and the MIC (Enterococcus faecium) was 8 µg/mL (≈ 13.3 µM). For the same compound, the MIC (Escherichia coli) was 8 µg/mL (≈ 13.3 µM), the MIC (Acinetobacter baumannii) was 4 µg/mL (≈ 6.66 µM) and the MIC (Pseudomonas aeruginosa) was 32 µg/mL (≈ 53.3 µM). The “growth inhibition (GI)” value (Staphylococcus aureus [4]) was “Active”.

For `O=C1COc2ccc(CNC34CCC(CCc5c(F)cnc6ccc(OCc7cc(=O)c(O)c[nH]7)nc56)(CC3)OC4)nc2N1`, the MIC (Staphylococcus aureus [3]) was 8 µg/mL (≈ 13.3 µM), the MIC (Streptococcus pneumoniae) was 32 µg/mL (≈ 53.1 µM) and the MIC (Enterococcus faecium) was 64 µg/mL (≈ 106 µM). For the same compound, the MIC (Escherichia coli) was 16 µg/mL (≈ 26.6 µM), the MIC (Acinetobacter baumannii) was 16 µg/mL (≈ 26.6 µM) and the MIC (Pseudomonas aeruginosa) was 16 µg/mL (≈ 26.6 µM). The “growth inhibition (GI)” value (Staphylococcus aureus [4]) was “Active”.

Compound `O=C1COc2ccc(CNC34CCC(CCc5c(F)cnc6ccc(OC7CCC7)nc56)(CC3)OC4)nc2N1` has an MIC (Staphylococcus aureus [3]) of 0.125 µg/mL (≈ 0.234 µM), an MIC (Streptococcus pneumoniae) of 2 µg/mL (≈ 3.75 µM) and an MIC (Enterococcus faecium) of 8 µg/mL (≈ 15 µM). The MIC (Escherichia coli) was 64 µg/mL (≈ 120 µM), the MIC (Acinetobacter baumannii) was 8 µg/mL (≈ 15 µM) and the MIC (Pseudomonas aeruginosa) was 64 µg/mL (≈ 120 µM). For the same compound, the “growth inhibition (GI)” value (Staphylococcus aureus [4]) was “Active”.

With `O=C1COc2ccc(CNC34CCC(CCc5c(F)cnc6ccc(OC[C@H]7C[C@H]7C(=O)O)nc56)(CC3)OC4)nc2N1` (relative stereo) the MIC (Staphylococcus aureus [3]) was 0.125 µg/mL (≈ 0.216 µM), the MIC (Streptococcus pneumoniae) was 0.125 µg/mL (≈ 0.216 µM) and the MIC (Enterococcus faecium) was 2 µg/mL (≈ 3.46 µM). For the same compound, the MIC (Escherichia coli) was 32 µg/mL (≈ 55.4 µM), the MIC (Acinetobacter baumannii) was 32 µg/mL (≈ 55.4 µM) and the MIC (Pseudomonas aeruginosa) was 32 µg/mL (≈ 55.4 µM). For the same compound, the “growth inhibition (GI)” value (Staphylococcus aureus [4]) was “Active”.

With `CCOC(=O)COc1ccc2ncc(F)c(CCC34CCC(NCc5ccc6c(n5)NC(=O)CO6)(CC3)CO4)c2n1` the MIC (Staphylococcus aureus [3]) was 0.25 µg/mL (≈ 0.442 µM), the MIC (Streptococcus pneumoniae) was 16 µg/mL (≈ 28.3 µM) and the MIC (Enterococcus faecium) was 16 µg/mL (≈ 28.3 µM). For the same compound, the MIC (Escherichia coli) was 16 µg/mL (≈ 28.3 µM), the MIC (Acinetobacter baumannii) was 8 µg/mL (≈ 14.1 µM) and the MIC (Pseudomonas aeruginosa) was 16 µg/mL (≈ 28.3 µM). The “growth inhibition (GI)” value (Staphylococcus aureus [4]) was “Active”.

For `O=C1COc2ccc(CNC34CCC(CCc5c(F)cnc6ccc(OC[C@H]7C[C@@H](O)[C@@H](O)C7)nc56)(CC3)OC4)nc2N1`, the MIC (Staphylococcus aureus [3]) was 0.063 µg/mL (≈ 0.106 µM), the MIC (Streptococcus pneumoniae) was 0.5 µg/mL (≈ 0.842 µM) and the MIC (Enterococcus faecium) was 4 µg/mL (≈ 6.74 µM). It also gave an MIC (Escherichia coli) of 8 µg/mL (≈ 13.5 µM), an MIC (Acinetobacter baumannii) of 8 µg/mL (≈ 13.5 µM) and an MIC (Pseudomonas aeruginosa) of 8 µg/mL (≈ 13.5 µM). The “growth inhibition (GI)” value (Staphylococcus aureus [4]) was “Active”.

With `COCCOc1ccc2ncc(F)c(CCC34CCC(NCc5ccc6c(n5)NC(=O)CO6)(CC3)CO4)c2n1.Cl` the ED50 (Staphylococcus aureus [1]) was 7.2 mg/kg.
